Assay results reported in publication PMC10211317, “Identification of ARUK2002821 as an isoform-selective PI5P4Kα inhibitor” (RSC Medicinal Chemistry, 2023).
Values after ≈ are worked out from the molar mass of the structure shown.

Key:
TSSK1 = TSSK1 (Homo sapiens, UniProt Q9BXA7); assay: Premier Screen kinase panel (MRC PPU); assay type: biochemical; conditions: TSSK1 (Entrez TSSK1B), read-out: Residual activity (%)
Description: (§1) room temperature with shaking for 30 minutes. The kinase concentration in the eluates was measured by qPCR.
(§2) using ADP-GloTM assay at the MRC PPU International Centre for Kinase Profiling, University of Dundee.
(§3) Conducted by MRC PPU International Centre
(§4) Conducted by MRC PPU International Centre for […]

TIE2 = TIE2 (Homo sapiens, UniProt Q02763); assay: Premier Screen kinase panel (MRC PPU); assay type: biochemical; conditions: TIE2 (Entrez TEK), read-out: Residual activity (%)
Description: as §1, §2, §3, §4

PAK5 = PAK5 (Homo sapiens, UniProt Q9P286); assay: Premier Screen kinase panel (MRC PPU); assay type: biochemical; conditions: PAK5 (Entrez PAK5), read-out: Residual activity (%)
Description: as §1, §2, §3, §4

SIK3 = SIK3 (Homo sapiens, UniProt Q9Y2K2); assay: Premier Screen kinase panel (MRC PPU); assay type: biochemical; conditions: SIK3 (Entrez SIK3), read-out: Residual activity (%)
Description: as §1, §2, §3, §4

SmMLCK = SmMLCK (Homo sapiens, UniProt Q15746); assay: Premier Screen kinase panel (MRC PPU); assay type: biochemical; conditions: SmMLCK (Entrez MYLK), read-out: Residual activity (%)
Description: as §1, §2, §3, §4

IRR = IRR (Homo sapiens, UniProt P14616); assay: Premier Screen kinase panel (MRC PPU); assay type: biochemical; conditions: IRR (Entrez INSRR), read-out: Residual activity (%)
Description: as §1, §2, §3, §4

BRK = BRK (Homo sapiens, UniProt Q13882); assay: Premier Screen kinase panel (MRC PPU); assay type: biochemical; conditions: BRK (Entrez PTK6), read-out: Residual activity (%)
Description: as §1, §2, §3, §4

EPH-B4 = EPH-B4 (Homo sapiens, UniProt P54760); assay: Premier Screen kinase panel (MRC PPU); assay type: biochemical; conditions: EPH-B4 (Entrez EPHB4), read-out: Residual activity (%)
Description: as §1, §2, §3, §4

MST3 = MST3 (Homo sapiens, UniProt Q9Y6E0); assay: Premier Screen kinase panel (MRC PPU); assay type: biochemical; conditions: MST3 (Entrez STK24), read-out: Residual activity (%)
Description: as §1, §2, §3, §4

MPSK1 = MPSK1 (Homo sapiens, UniProt O75716); assay: Premier Screen kinase panel (MRC PPU); assay type: biochemical; conditions: MPSK1 (Entrez STK16), read-out: Residual activity (%)
Description: as §1, §2, §3, §4

p38g MAPK = p38g MAPK (Homo sapiens, UniProt P53778); assay: Premier Screen kinase panel (MRC PPU); assay type: biochemical; conditions: p38g MAPK (Entrez MAPK13), read-out: Residual activity (%)
Description: as §1, §2, §3, §4

CLK2 = CLK2 (Homo sapiens, UniProt P49760); assay: Premier Screen kinase panel (MRC PPU); assay type: biochemical; conditions: CLK2 (Entrez CLK2), read-out: Residual activity (%)
Description: as §1, §2, §3, §4

p38b MAPK = p38b MAPK (Homo sapiens, UniProt Q15759); assay: Premier Screen kinase panel (MRC PPU); assay type: biochemical; conditions: p38b MAPK (Entrez MAPK11), read-out: Residual activity (%)
Description: as §1, §2, §3, §4

SRPK1 = SRPK1 (Homo sapiens, UniProt Q96SB4); assay: Premier Screen kinase panel (MRC PPU); assay type: biochemical; conditions: SRPK1 (Entrez SRPK1), read-out: Residual activity (%)
Description: as §1, §2, §3, §4

MST4 = MST4 (Homo sapiens, UniProt Q9P289); assay: Premier Screen kinase panel (MRC PPU); assay type: biochemical; conditions: MST4 (Entrez STK26), read-out: Residual activity (%)
Description: as §1, §2, §3, §4

SGK1 = SGK1 (Homo sapiens, UniProt O00141); assay: Premier Screen kinase panel (MRC PPU); assay type: biochemical; conditions: SGK1 (Entrez SGK1), read-out: Residual activity (%)
Description: as §1, §2, §3, §4

PRK2 = PRK2 (Homo sapiens, UniProt Q16513); assay: Premier Screen kinase panel (MRC PPU); assay type: biochemical; conditions: PRK2 (Entrez PKN2), read-out: Residual activity (%)
Description: as §1, §2, §3, §4

IKKb = IKKb (Homo sapiens, UniProt O14920); assay: Premier Screen kinase panel (MRC PPU); assay type: biochemical; conditions: IKKb (Entrez IKBKB), read-out: Residual activity (%)
Description: as §1, §2, §3, §4

Src = Src (Homo sapiens, UniProt P12931); assay: Premier Screen kinase panel (MRC PPU); assay type: biochemical; conditions: Src (Entrez SRC), read-out: Residual activity (%)
Description: as §1, §2, §3, §4

NEK2a = NEK2a (Homo sapiens, UniProt P51955); assay: Premier Screen kinase panel (MRC PPU); assay type: biochemical; conditions: NEK2a (Entrez NEK2), read-out: Residual activity (%)
Description: as §1, §2, §3, §4

TrkA = TrkA (Homo sapiens, UniProt P04629); assay: Premier Screen kinase panel (MRC PPU); assay type: biochemical; conditions: TrkA (Entrez NTRK1), read-out: Residual activity (%)
Description: as §1, §2, §3, §4

EPH-A4 = EPH-A4 (Homo sapiens, UniProt P54764); assay: Premier Screen kinase panel (MRC PPU); assay type: biochemical; conditions: EPH-A4 (Entrez EPHA4), read-out: Residual activity (%)
Description: as §1, §2, §3, §4

HIPK1 = HIPK1 (Homo sapiens, UniProt Q86Z02); assay: Premier Screen kinase panel (MRC PPU); assay type: biochemical; conditions: HIPK1 (Entrez HIPK1), read-out: Residual activity (%)
Description: as §1, §2, §3, §4

RSK1 = RSK1 (Homo sapiens, UniProt Q15418); assay: Premier Screen kinase panel (MRC PPU); assay type: biochemical; conditions: RSK1 (Entrez RPS6KA1), read-out: Residual activity (%)
Description: as §1, §2, §3, §4

MDR1 (P-gp) = assay: MDR1-MDCK permeability (bi-directional); assay type: in vitro ADME; conditions: dog, MDCK-MDR1 cells
Description: ADMET experimental methods
MDR1-MDCK Permeability (bi-directional): was performed by Cyprotex Discovery. Briefly, compounds were administered at 10 µM (1% DMSO final) to the apical or basolateral side of a confluent monolayer of MDR1 - MDCK cells, then incubated a t 37 °C for 60 minutes before appearance on the opposite side of the monolayer was determined LC-MS/MS. The efflux ratio (ER) is calculated from the ratio of B -A to A-B permeabilities. […]

[1] = Turbidimetric aqueous solubility; assay type: physicochemical; conditions: PBS buffer; pH 7.4 in aqueous buffer
Description: ADMET experimental methods […]
Turbidimetric aqueous solubility: analysis was performed by Cyprotex Discovery. Compound in DMSO at 10 mM was serially diluted to solutions of 0.1, 0.3, 1 and 3 mM in DMSO, then further diluted 1 in 100 in buffer (0.01 M PBS, pH 7.4, 1% DMSO final). 7 replicate wells of each dilution were equilibrated for 2 hours at 37 °C before absorbance is measured at 620 nm. The solubility is estimated from the concentration of test compound that produces an increase in absorbance above vehicle control (1% DMSO in buffer). […]

Sequence of IRR (P14616 27-1297): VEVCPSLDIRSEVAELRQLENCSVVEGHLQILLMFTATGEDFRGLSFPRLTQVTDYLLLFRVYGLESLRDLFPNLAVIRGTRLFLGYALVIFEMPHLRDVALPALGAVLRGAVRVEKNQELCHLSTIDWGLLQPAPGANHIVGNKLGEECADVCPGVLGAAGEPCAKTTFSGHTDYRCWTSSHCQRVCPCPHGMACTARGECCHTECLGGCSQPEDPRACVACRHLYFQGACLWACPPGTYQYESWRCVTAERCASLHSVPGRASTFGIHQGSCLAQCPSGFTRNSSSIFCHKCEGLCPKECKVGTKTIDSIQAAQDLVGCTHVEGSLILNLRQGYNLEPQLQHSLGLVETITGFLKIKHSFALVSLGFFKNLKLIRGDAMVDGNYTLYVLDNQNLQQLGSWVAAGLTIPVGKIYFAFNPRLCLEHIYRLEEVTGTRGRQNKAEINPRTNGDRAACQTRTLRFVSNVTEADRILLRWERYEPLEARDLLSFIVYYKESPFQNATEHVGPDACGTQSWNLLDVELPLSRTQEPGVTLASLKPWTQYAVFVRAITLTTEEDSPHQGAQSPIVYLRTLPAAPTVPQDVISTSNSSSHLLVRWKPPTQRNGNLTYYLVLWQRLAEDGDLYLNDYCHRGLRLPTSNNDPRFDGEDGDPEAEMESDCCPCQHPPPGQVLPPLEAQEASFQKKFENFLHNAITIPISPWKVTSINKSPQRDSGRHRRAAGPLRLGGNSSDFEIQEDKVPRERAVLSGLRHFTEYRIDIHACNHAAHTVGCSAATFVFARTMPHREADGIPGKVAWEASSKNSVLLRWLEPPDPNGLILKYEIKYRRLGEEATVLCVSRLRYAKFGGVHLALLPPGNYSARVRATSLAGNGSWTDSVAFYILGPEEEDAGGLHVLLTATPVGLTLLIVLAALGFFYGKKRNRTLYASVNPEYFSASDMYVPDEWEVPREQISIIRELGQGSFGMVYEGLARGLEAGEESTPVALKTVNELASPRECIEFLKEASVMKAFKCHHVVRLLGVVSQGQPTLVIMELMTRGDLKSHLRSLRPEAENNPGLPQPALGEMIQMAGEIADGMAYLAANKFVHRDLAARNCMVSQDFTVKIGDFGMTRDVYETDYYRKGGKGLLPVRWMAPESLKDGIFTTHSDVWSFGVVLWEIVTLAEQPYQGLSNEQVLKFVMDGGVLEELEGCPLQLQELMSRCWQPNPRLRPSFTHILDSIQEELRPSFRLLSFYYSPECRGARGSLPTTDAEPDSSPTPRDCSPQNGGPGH
Sequence of MPSK1 (O75716 whole entry): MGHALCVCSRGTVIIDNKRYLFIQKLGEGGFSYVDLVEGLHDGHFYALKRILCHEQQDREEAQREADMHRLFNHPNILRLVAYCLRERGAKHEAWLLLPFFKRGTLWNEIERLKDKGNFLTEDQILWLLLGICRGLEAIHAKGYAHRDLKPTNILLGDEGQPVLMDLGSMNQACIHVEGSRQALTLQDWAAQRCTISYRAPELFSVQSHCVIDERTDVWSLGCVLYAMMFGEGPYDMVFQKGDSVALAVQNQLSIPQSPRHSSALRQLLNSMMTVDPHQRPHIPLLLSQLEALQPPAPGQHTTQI
Sequence of MST3 (Q9Y6E0 whole entry, species assumed): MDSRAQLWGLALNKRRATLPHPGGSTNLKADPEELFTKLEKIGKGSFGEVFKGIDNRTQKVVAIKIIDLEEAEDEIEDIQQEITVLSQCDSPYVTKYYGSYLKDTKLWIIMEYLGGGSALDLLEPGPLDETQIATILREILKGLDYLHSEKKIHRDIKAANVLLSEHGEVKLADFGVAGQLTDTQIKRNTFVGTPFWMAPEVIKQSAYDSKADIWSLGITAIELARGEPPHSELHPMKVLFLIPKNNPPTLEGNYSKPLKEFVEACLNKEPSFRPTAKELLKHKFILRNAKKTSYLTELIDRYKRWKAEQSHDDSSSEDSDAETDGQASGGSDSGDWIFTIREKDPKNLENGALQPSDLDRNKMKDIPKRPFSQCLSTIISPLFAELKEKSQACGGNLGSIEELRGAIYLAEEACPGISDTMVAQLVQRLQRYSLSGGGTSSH
Sequence of PRK2 (Q16513 whole entry): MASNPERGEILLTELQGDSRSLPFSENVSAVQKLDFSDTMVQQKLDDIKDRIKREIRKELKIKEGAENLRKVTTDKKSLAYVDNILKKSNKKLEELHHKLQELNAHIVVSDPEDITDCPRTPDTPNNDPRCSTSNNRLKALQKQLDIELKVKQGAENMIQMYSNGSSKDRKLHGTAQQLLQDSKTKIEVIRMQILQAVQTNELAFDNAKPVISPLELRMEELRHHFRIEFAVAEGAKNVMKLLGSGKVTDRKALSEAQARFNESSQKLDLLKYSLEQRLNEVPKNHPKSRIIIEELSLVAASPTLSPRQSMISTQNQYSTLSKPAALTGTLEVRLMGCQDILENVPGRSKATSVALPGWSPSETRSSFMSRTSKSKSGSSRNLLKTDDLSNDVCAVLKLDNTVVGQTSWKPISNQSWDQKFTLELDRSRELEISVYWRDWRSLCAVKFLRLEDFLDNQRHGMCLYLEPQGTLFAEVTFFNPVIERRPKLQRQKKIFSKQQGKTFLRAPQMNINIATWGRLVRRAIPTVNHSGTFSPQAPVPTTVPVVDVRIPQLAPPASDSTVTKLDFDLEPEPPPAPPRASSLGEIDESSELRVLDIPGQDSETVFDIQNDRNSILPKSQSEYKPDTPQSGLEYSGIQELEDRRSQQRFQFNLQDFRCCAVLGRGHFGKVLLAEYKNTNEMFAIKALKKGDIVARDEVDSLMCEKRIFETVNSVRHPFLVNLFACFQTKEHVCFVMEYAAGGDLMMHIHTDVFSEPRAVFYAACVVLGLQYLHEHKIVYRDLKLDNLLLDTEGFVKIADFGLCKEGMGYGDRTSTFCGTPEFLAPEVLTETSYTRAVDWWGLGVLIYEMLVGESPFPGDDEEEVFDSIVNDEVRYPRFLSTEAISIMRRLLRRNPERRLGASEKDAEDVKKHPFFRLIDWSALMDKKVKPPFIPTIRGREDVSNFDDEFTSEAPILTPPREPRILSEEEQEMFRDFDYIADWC
Sequence of EPH-B4 (P54760 16-987): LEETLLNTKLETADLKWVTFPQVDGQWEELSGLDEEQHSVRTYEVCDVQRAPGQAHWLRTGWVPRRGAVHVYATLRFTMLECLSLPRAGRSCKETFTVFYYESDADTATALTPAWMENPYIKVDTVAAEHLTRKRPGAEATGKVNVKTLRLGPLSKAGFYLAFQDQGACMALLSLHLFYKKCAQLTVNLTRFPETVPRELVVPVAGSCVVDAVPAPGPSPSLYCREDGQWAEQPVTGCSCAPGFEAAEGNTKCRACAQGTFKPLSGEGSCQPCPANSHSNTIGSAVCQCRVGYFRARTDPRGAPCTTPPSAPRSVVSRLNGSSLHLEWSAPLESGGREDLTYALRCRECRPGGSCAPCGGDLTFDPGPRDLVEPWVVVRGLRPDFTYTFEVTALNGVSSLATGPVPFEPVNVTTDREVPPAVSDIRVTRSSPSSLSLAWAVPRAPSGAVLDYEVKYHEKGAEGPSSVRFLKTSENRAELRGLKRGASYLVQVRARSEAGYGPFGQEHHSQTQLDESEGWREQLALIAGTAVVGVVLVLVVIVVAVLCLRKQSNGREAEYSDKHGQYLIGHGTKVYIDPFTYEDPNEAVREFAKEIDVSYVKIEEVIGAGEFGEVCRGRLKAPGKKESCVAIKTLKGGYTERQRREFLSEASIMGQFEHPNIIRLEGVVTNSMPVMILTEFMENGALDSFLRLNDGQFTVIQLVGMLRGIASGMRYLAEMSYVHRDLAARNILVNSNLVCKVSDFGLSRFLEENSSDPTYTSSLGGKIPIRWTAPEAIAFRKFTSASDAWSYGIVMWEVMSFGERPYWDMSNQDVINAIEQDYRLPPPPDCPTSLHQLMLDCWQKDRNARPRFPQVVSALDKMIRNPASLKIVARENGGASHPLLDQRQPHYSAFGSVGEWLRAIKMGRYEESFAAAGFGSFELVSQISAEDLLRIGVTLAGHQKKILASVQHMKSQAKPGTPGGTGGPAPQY
Sequence of SRPK1 (Q96SB4 whole entry): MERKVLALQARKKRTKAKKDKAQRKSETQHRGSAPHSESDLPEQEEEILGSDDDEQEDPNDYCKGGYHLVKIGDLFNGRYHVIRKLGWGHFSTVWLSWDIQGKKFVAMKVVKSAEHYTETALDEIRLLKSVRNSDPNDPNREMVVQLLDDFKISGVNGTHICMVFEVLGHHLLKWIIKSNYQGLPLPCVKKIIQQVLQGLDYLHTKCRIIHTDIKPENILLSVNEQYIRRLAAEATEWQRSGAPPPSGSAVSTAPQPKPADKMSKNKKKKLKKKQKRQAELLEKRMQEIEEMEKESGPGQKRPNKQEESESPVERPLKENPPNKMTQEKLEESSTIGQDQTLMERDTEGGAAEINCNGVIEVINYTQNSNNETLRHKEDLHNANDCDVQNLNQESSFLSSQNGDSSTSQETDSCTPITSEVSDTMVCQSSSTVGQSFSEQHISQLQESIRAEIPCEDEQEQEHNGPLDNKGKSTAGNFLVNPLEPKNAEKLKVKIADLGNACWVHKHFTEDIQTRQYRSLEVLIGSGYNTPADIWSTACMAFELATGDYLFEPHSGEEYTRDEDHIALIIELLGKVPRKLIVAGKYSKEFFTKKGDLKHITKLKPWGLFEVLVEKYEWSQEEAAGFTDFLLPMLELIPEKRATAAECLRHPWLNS
Sequence of SGK1 (O00141 whole entry): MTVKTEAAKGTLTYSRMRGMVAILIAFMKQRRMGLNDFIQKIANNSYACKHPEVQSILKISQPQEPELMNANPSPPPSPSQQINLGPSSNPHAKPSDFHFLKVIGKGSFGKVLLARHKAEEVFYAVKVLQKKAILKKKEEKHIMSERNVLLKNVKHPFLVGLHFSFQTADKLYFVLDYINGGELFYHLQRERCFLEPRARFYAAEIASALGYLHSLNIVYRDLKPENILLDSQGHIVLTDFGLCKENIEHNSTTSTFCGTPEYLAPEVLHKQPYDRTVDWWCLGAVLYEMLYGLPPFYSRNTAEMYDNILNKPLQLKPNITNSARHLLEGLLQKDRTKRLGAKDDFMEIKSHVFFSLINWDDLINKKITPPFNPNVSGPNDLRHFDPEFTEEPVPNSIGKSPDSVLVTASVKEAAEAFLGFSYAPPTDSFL

SMILES: COc1ccc(Nc2ncnc3c2ccn3-c2ccc(C)c(C)c2)cc1Cl [compound 36]
- remaining activity at 1 µM (TSSK1): 98%
- remaining activity at 1 µM (TIE2): 105%
- remaining activity at 1 µM (PAK5): 94%
- remaining activity at 1 µM (SIK3): 123%
- remaining activity at 1 µM (SmMLCK): 99%
- remaining activity at 1 µM (IRR): 96%
- remaining activity at 1 µM (BRK): 126%
- remaining activity at 1 µM (EPH-B4): 99%
- remaining activity at 1 µM (MST3): 124%
- remaining activity at 1 µM (MPSK1): 96%
- remaining activity at 1 µM (p38g MAPK): 101%
- remaining activity at 1 µM (CLK2): 107%
- remaining activity at 1 µM (p38b MAPK): 103%
- remaining activity at 1 µM (SRPK1): 99%
- remaining activity at 1 µM (MST4): 99%
- remaining activity at 1 µM (SGK1): 97%
- remaining activity at 1 µM (PRK2): 86%
- remaining activity at 1 µM (IKKb): 75%
- remaining activity at 1 µM (Src): 93%
- remaining activity at 1 µM (NEK2a): 86%
- remaining activity at 1 µM (TrkA): 85%
- remaining activity at 1 µM (EPH-A4): 101%
- remaining activity at 1 µM (HIPK1): 104%
- remaining activity at 1 µM (RSK1): 109%
- Papp A→B at 60 min, 10 µM (MDR1 (P-gp)): 0.2 ×10⁻⁶ cm/s
- solubility at 2 h [1]: 3 µM (≈ 1.14 µg/mL)
